PubChem BioAssay AID248 (DTP/NCI, 2004)
Several values for one entry are separate records, joined by “and”; a condition that tells them apart may be missing. Identical values can stand only once. Inconclusive results and toxic doses are left out. Rule as the data show it: active = T/C of 150% or more; inactive = T/C below 125%.

Tested on: L1210 leukemia ip in BDF1 mice, survival T/C
Test: NCI In Vivo Anticancer Drug Screen. Data for tumor model L1210 Leukemia (intraperitoneal) in B6D2F1 (BDF1) mice
Settings: endpoint: mean survival time, higher = longer survival
Outline: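 Tumor cells were implanted, animals were treated, and survival was followed. The result divides the treated measurement by the vehicle-control measurement.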

[1] = dose: 100.0 mg/kg/injection, schedule: Q04DX003 (ip), vehicle: saline with Tween-80
[2] = dose: 200.0 mg/kg/injection, schedule: Q04DX003 (ip), vehicle: saline with Tween-80

Measured: T/C

Cc1ccc(S(=O)(=O)OCC(F)(F)C(F)(F)C(F)(F)COS(=O)(=O)c2ccc(C)cc2)cc1
inactive: dose: 75.0 mg/kg/injection, schedule: Q04DX002 (ip), vehicle: saline with Tween-80 88 % of control | dose: 150.0 mg/kg/injection, schedule: Q04DX002 (ip), vehicle: saline with Tween-80 91 % of control | dose: 300.0 mg/kg/injection, schedule: Q04DX002 (ip), vehicle: saline with Tween-80 95 % of control

CCCCNC(=O)c1ccccc1-c1ccccc1C(=O)NCCCC
inactive: dose: 100.0 mg/kg/injection, schedule: Q01DX001 (ip), vehicle: other 105 % of control | dose: 200.0 mg/kg/injection, schedule: Q01DX001 (ip), vehicle: other 97 % of control

Cc1nc(CN(C)C)c2cnccn12
inactive: dose: 25.0 mg/kg/injection, schedule: Q01DX009 (ip), vehicle: saline 109 % of control | dose: 50.0 mg/kg/injection, schedule: Q01DX009 (ip), vehicle: saline 113 % of control | dose: 100.0 mg/kg/injection, schedule: Q04DX003 (ip), vehicle: saline 98 % of control

C[n+]1c(-c2ccccc2)c2cc(N)ccc2c2ccccc21
inactive: dose: 0.2 mg/kg/injection, schedule: Q01DX Z (ip), vehicle: methylcellulose (MC) 108 % of control | dose: 0.3 mg/kg/injection, schedule: Q01DX Z (ip), vehicle: methylcellulose (MC) 113 % of control | dose: 0.5 mg/kg/injection, schedule: Q01DX Z (ip), vehicle: methylcellulose (MC) 102 % of control and 114 % of control | dose: 0.75 mg/kg/injection, schedule: Q01DX Z (ip), vehicle: methylcellulose (MC) 111 % of control | dose: 1.0 mg/kg/injection, schedule: Q01DX Z (ip), vehicle: methylcellulose (MC) 107 % of control and 120 % of control | dose: 1.5 mg/kg/injection, schedule: Q01DX Z (ip), vehicle: methylcellulose (MC) 104 % of control | dose: 1.5 mg/kg/injection, schedule: Q01DX Z (ip), vehicle: saline 111 % of control | dose: 2.0 mg/kg/injection, schedule: Q01DX Z (ip), vehicle: carboxymethylcellulose (CMC) 106 % of control | dose: 2.0 mg/kg/injection, schedule: Q01DX Z (ip), vehicle: methylcellulose (MC) 110 % of control and 113 % of control | dose: 3.0 mg/kg/injection, schedule: Q01DX Z (ip), vehicle: carboxymethylcellulose (CMC) 112 % of control | dose: 3.0 mg/kg/injection, schedule: Q01DX Z (ip), vehicle: methylcellulose (MC) 117 % of control | dose: 3.0 mg/kg/injection, schedule: Q01DX Z (ip), vehicle: saline 117 % of control | dose: 4.0 mg/kg/injection, schedule: Q01DX Z (ip), vehicle: methylcellulose (MC) 121 % of control | dose: 4.4 mg/kg/injection, schedule: Q01DX Z (ip), vehicle: carboxymethylcellulose (CMC) 110 % of control | dose: 6.6 mg/kg/injection, schedule: Q01DX Z (ip), vehicle: carboxymethylcellulose (CMC) 120 % of control | dose: 8.0 mg/kg/injection, schedule: Q01DX Z (ip), vehicle: methylcellulose (MC) 121 % of control and 122 % of control | dose: 10.0 mg/kg/injection, schedule: Q01DX001 (ip), vehicle: saline 100 % of control | dose: 20.0 mg/kg/injection, schedule: Q01DX001 (ip), vehicle: saline 117 % of control | dose: 24.0 mg/kg/injection, schedule: Q01DX Z (ip), vehicle: saline 112 % of control | dose: 40.0 mg/kg/injection, schedule: Q01DX001 (ip), vehicle: saline 100 % of control

Cc1cc2nc(SCC(=O)O)[nH]c2cc1C
inactive: dose: 100.0 mg/kg/injection, schedule: Q01DX009 (ip), vehicle: gum acacia 96 % of control | dose: 100.0 mg/kg/injection, schedule: Q04DX003 (ip), vehicle: gum acacia 99 % of control | dose: 200.0 mg/kg/injection, schedule: Q01DX009 (ip), vehicle: gum acacia 89 % of control | dose: 200.0 mg/kg/injection, schedule: Q04DX003 (ip), vehicle: gum acacia 103 % of control | dose: 400.0 mg/kg/injection, schedule: Q04DX003 (ip), vehicle: gum acacia 93 % of control

C/C=C/CCCCCCCC(=O)OCCCC
inactive: dose: 100.0 mg/kg/injection, schedule: Q01DX009 (ip), vehicle: saline with Tween-80 101 % of control | [1] 103 % of control | dose: 200.0 mg/kg/injection, schedule: Q01DX009 (ip), vehicle: saline with Tween-80 107 % of control | [2] 97 % of control | dose: 400.0 mg/kg/injection, schedule: Q01DX009 (ip), vehicle: saline with Tween-80 95 % of control | dose: 400.0 mg/kg/injection, schedule: Q04DX003 (ip), vehicle: saline with Tween-80 98 % of control

CCC(C)C(C(=O)OCCN(C)C)c1ccccc1 (centres undefined)
inactive: [1] 98 % of control | [2] 92 % of control

O=c1cc(-c2ccccc2)[nH]c2ccc(S(=O)(=O)O)cc12
inactive: dose: 100.0 mg/kg/injection, schedule: Q04DX003 (ip), vehicle: Klucel (hydroxypropylcellulose) (HPC) 93 % of control | dose: 200.0 mg/kg/injection, schedule: Q04DX003 (ip), vehicle: Klucel (hydroxypropylcellulose) (HPC) 106 % of control | dose: 400.0 mg/kg/injection, schedule: Q04DX003 (ip), vehicle: Klucel (hydroxypropylcellulose) (HPC) 96 % of control
